Results reported in patent US8143293B2, “Kinase inhibitors useful for the treatment of myleoprolific diseases and other proliferative diseases” (Deciphera Pharmaceuticals, LLC, priority 2007, dated 2012).

Tests used:
[1] = molecular target: T1, BaF3 cells transfected with wild type p210 BCR-Abl (Homo sapiens, UniProt P00519); assay: Ba/F3 p210 whole cell proliferation assay; format: cell-based; settings: 72 hours, Cell Titer Blue; read-out: Whole Cell Antiproliferation IC50, Ba/F3 p210 whole cell proliferation assay
T1 construct: fused on or other part: P11274 (Breakpoint cluster region protein)
Procedure: (§1) BaF3 cells (parental or transfected with the following: wild type p210 BCR-Abl and T315I p210 BCR-Abl was obtained from Professor Richard Van Etten (New England Medical Center, Boston, Mass.). Briefly, cells were grown in RPMI 1640 supplemented with 10% characterized fetal bovine serum (HyClone, Logan, Utah) at 37 degrees Celsius, 5% CO2, 95% humidity. Cells were allowed to expand until reaching 80% saturation at which point they were subcultured or harvested for assay use.
(§2) A serial dilution of test compound was dispensed into a 96 well black clear bottom plate (Corning, Corning, N.Y.). For each cell line, three thousand cells were added per well in complete growth medium. Plates were incubated for 72 hours at 37 degrees Celsius, 5% CO2, 95% humidity. At the end of the incubation period Cell Titer Blue (Promega, Madison, Wis.) was added to each well and an additional 4.5 hour incubation at 37 degrees Celsius, 5% CO2, 95% humidity was performed. Plates were then read on a BMG Fluostar Optima (BMG, Durham, N.C.) using an excitation of 544 nm and an emission of 612 nm. Data was analyzed using Prism software (Graphpad, San Diego, Calif.) to calculate IC50's.

[2] = molecular target: T2, BaF3 cells transfected with T315I p210 BCR-Abl (Homo sapiens, UniProt P00519, T315I, cells depend on it); assay: Ba/F3 p210 T315I whole cell proliferation assay; format: cell-based; settings: 72 hours, Cell Titer Blue; read-out: Whole Cell Antiproliferation IC50, Ba/F3 p210 T315I whole cell proliferation assay
T2 construct: fused on or other part: P11274 (Breakpoint cluster region protein)
Procedure: as §1, §2

[3] = molecular target: T3, c-Kit kinase (SEQ ID NO:9) (Homo sapiens, UniProt P10721); assay: C-Kit kinase (SEQ ID NO:9) assay, pyruvate kinase/lactate dehydrogenase coupled; settings: <2 min preincubation, ATP 200 μM; read-out: Biochemical IC50, c-Kit Enzyme Assay
T3 construct: contained c-Kit (cKIT residues T544-V976, from ProQinase, 5.4 nM); purchased ProQinase
Procedure: C-Kit Kinase (SEQ ID NO:9) Assay
Activity of c-Kit kinase (SEQ ID NO:9) was determined by following the production of ADP from the kinase reaction through coupling with the pyruvate kinase/lactate dehydrogenase system (e.g., Schindler, et al. Science (2000) 289, 1938-1942). In this assay, the oxidation of NADH (thus the decrease at A340 nm) was continuously monitored spectrophometrically. The reaction mixture (100 μl) contained c-Kit (cKIT residues T544-V976, from ProQinase, 5.4 nM), polyE4Y (1 mg/ml), MgCl2 (10 mM), pyruvate kinase (4 units), lactate dehydrogenase (0.7 units), phosphoenol pyruvate (1 mM), and NADH (0.28 mM) in 90 mM Tris buffer containing 0.2% octyl-glucoside and 1% DMSO, pH 7.5. Test compounds were incubated with […] (SEQ ID NO:9) and other reaction reagents at 22° C. for <2 min before ATP (200 μM) was added to start the reaction. The absorption at 340 nm was monitored continuously for 0.5 hours at 30° C. on Polarstar Optima plate reader (BMG). The reaction rate was calculated using the 0 to 0.5 h time frame. Percent inhibition was obtained by comparison of reaction rate with that of a control (i.e. with no test compound). IC50 values were calculated from a series of percent inhibition values determined at a range of inhibitor concentrations using software routines as implemented in the GraphPad Prism software package.

[4] = molecular target: T4, C-Met kinase (SEQ ID NO:10) (Homo sapiens, UniProt P08581); assay: C-Met kinase (SEQ ID NO:10) assay, pyruvate kinase/lactate dehydrogenase coupled; settings: 0.5 h preincubation, ATP 100 μM; read-out: Biochemical IC50, c-Met Enzyme Assay
T4 construct: 956-1390, from Invitrogen, catalogue #PV3143; His6 (N-terminal leader MSYYHHHHHH... with TEV and thrombin sites) (N); purchased Invitrogen PV3143
Procedure: C-Met Kinase (SEQ ID NO:10) Assay
Activity of C-Met kinase (SEQ ID NO:10) was determined by following the production of ADP from the kinase reaction through coupling with the pyruvate kinase/lactate dehydrogenase system (e.g., Schindler, et al. Science (2000) 289, 1938-1942). In this assay, the oxidation of NADH (thus the decrease at A340 nm) was continuously monitored spectrophometrically. The reaction mixture (100 μl) contained C-Met (c-Met residues; 956-1390, from Invitrogen, catalogue #PV3143, […]), polyE4Y (1 mg/ml), MgCl2 (10 mM), pyruvate kinase (4 units), lactate dehydrogenase (0.7 units), phosphoenol pyruvate (1 mM), and NADH (0.28 mM) in 90 mM Tris buffer containing 0.25 mM DTT, 0.2% octyl-glucoside and 1% DMSO, pH 7.5. Test compounds were incubated with C-Met (SEQ ID NO:10) and other reaction reagents at 22° C. for 0.5 h before ATP (100 μM) was added to start the reaction. The absorption at 340 nm was monitored continuously for 2 hours at 30° C. on Polarstar Optima plate reader (BMG). The reaction rate was calculated using the 1.0 to 2.0 h time frame. Percent inhibition was obtained by comparison of reaction rate with that of a control (i.e. with no test compound). IC50 values were calculated from a series of percent inhibition values determined at a range of inhibitor concentrations using software routines as implemented in the GraphPad Prism software package.

[5] = molecular target: T5, Abl kinase (SEQ ID NO: 1) (Homo sapiens, UniProt P00519); assay: Abl kinase (SEQ ID NO:1) assay, pyruvate kinase/lactate dehydrogenase coupled; settings: 2 h preincubation, ATP 500 μM; read-out: Biochemical IC50, Abl Enzyme Assay
T5 construct: purchased deCode Genetics
T5 sequence (P00519 with tags, fused parts or gaps): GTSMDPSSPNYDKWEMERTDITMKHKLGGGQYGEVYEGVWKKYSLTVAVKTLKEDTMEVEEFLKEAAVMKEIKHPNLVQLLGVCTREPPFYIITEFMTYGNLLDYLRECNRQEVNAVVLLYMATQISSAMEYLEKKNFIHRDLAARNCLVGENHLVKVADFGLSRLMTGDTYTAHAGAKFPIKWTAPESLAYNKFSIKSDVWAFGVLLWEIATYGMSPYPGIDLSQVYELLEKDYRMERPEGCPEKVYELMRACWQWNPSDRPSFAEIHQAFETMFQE
Procedure: Abl Kinase (SEQ ID NO:1) Assay
Activity of Abl kinase (SEQ ID NO: 1) was determined by following the production of ADP from the kinase reaction through coupling with the pyruvate kinase/lactate dehydrogenase system (e.g., Schindler, et al. Science (2000) 289, 1938-1942). In this assay, the oxidation of NADH (thus the decrease at A340 nm) was continuously monitored spectrophometrically. The reaction mixture (100 μl) contained Abl kinase (1 nM. Abl from deCode Genetics), peptide substrate (EAIYAAPFAKKK, 0.2 mM), MgCl2 (10 mM), pyruvate kinase (4 units), lactate dehydrogenase (0.7 units), phosphoenol pyruvate (1 mM), and NADH (0.28 mM) in 90 mM Tris buffer containing 0.2% octyl-glucoside and 3.5% DMSO, pH 7.5. Test compounds were incubated with Abl (SEQ ID NO:1) and other reaction reagents at 30° C. for 2 h before ATP (500 μM) was added to start the reaction. The absorption at 340 nm was monitored continuously for 2 hours at 30° C. on Polarstar Optima plate reader (BMG). The reaction rate was calculated using the 1.0 to 2.0 h time frame. Percent inhibition was obtained by comparison of reaction rate with that of a control (i.e. with no test compound). IC50 values were calculated from a series of percent inhibition values determined at a range of inhibitor concentrations using software routines as implemented in the GraphPad Prism software package.

T4 sequence (P08581 with tags, fused parts or gaps): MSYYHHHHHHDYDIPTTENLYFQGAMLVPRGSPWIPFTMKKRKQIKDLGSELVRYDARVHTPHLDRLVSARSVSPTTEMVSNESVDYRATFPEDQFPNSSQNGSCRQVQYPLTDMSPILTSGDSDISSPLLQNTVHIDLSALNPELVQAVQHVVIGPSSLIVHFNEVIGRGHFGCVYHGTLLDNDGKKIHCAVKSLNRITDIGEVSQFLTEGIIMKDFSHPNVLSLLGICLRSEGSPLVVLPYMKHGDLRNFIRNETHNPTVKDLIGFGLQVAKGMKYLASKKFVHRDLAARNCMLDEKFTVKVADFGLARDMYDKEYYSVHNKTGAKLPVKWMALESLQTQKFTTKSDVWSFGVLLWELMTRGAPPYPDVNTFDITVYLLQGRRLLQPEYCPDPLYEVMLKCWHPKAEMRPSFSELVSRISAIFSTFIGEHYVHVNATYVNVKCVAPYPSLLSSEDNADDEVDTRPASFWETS
T3 sequence (P10721 with tags, fused parts or gaps): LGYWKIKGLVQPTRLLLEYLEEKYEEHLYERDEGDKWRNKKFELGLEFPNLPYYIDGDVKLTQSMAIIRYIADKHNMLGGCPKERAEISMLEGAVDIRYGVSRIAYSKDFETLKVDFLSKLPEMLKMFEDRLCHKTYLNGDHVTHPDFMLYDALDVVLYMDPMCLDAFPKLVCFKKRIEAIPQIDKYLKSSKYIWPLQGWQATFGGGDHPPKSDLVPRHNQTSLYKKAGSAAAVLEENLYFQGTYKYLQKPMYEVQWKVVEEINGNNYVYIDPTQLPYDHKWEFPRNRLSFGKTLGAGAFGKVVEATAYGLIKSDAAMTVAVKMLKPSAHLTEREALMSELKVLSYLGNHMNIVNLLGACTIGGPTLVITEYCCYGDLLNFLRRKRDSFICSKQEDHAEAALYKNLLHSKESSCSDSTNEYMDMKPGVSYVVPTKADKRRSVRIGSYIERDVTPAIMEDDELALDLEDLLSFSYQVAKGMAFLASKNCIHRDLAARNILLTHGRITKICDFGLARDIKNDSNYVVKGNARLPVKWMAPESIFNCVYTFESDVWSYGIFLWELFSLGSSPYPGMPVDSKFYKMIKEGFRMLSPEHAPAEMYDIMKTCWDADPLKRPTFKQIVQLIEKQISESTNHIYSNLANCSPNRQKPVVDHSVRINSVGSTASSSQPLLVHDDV

Q: How did the GI50 [1] turn out when Cn1cc(-c2cc(Oc3ccc(NC(=O)Nc4noc5ccccc45)c(F)c3)ccn2)cn1 [Example 24, 1-(benzo[d]isoxazol-3-yl)-3-(2-fluoro-4-(2-(1-methyl-1H-pyrazol-4-yl)pyridin-4-yloxy)phenyl)urea] was run?
A: Its GI50 is under 100 nM.

Q: What about the GI50 [2] of the same compound?
A: The GI50 was under 100000 nM.

Q: And the IC50 [3]?
A: Its IC50 is under 100 nM.

Q: And the IC50 [4]?
A: The IC50 was under 10000 nM.

Q: What about the IC50 [5] of the same compound?
A: The IC50 was under 100 nM.
